Source: patent US4634692A, “Synthesis of 1α,25-dihydroxy-24R-fluorocholecalciferol and 1α,25-dihydroxy-24S-fluorocholecalciferol” (Hoffmann-La Roche Inc., priority 1984, dated 1987)
Values joined by “and” are separate entries in the source; they are usually repeats but may differ in a detail not shown here. Equal values may be shown once. “Also recorded” adds a separate entry of the source. Read-outs that look alike come from different tables or passages of the source.

Columns and labels:
[1] = tested on: EHDP-Induced Mineralization Block; assay: Prevention of EHDP-induced mineralization block in rats (tibial epiphyseal plate width); type: in vivo, rat (Charles River CD male); conditions: 10 days; for Mean tibial epiphyseal plate width: with EHDP
Experimental: Charles River CD male rats are treated for 10 consecutive days. Rats are 21 days of age at the start of treatment. Ethane-1-hydroxy-1,1-diphosphonate (EHDP) is given subcutaneously on each treatment day at a dose of 3 mg/0.2 ml/rat in distilled water. Test compounds are administered orally on each treatment day in propylene glycol (0.2 ml/rat). Rats are autopsied on the day after the last treatment day and tibias are processed by a modified von Kossa procedure based upon silver impregnation of bone salts. Epiphyseal plate widths are measured with a micrometer ocular using standard microscopic magnification (35×). Activity is based upon dose-dependent narrowing of the widened epiphyseal plate induced by EHDP. Ten rats are used in each treatment group. Positive (EHDP alone) and negative (vehicles alone) control groups of ten rats each are included in each experiment.

[2] = Pharmacokinetics in dogs, plasma half-life after intravenous administration; conditions: dog, in vivo, 0.0003 mg/kg
Experimental: The plasma level profiles of 1α,25-dihydroxy-24R-fluorocholecalciferol and 1α,25-dihydroxycholecalciferol are compared in the dog after a single intraveneous dose. Each compound is studied in four dogs with a two-week "washout" period between compounds. The compounds are administered intravenously as solutions (2.5 mg/ml) in propylene glycol at a dose level of 0.3 μg/kg. At selected time points 5 ml of heparinized blood are collected, placed in ice and centrifuged in the cold. Plasma is separated and frozen immediately.
Plasma concentrations are determined by procedures routinely employed for the measurements of circulating levels of 1α,25-dihydroxycholecalciferol.

[3] = tested on: vitamin D-deficient chicks; assay: Anti-rachitogenic activity in chicks (tibia ash weight); type: in vivo, chick (White Leghorn cockerels); conditions: for Mean tibia ash weight ± S.E.: 21 days oral dosing, 9-10 chicks per group, vehicle 120.9 ± 8.3
Experimental: One-day-old White Leghorn cockerels are placed on a vitamin D-deficient diet which contains 1% calcium and 0.7% phosphorous and are housed under ultraviolet-free lighting (General Electric F40G0 gold fluorescent lights). Compounds are dissolved in propylene glycol and administered orally in a volume of 0.2 ml for 21 consecutive days to chicks which are one to two days of age at the start of treatment. Controls are treated with vehicle alone. Compounds are prepared in amber flasks and the solutions are flushed with argon and refrigerated after each dosing period. Chicks are autopsied on the day after the last treatment day. Blood is collected for determination of serum calcium and phosphorus and tibia dry weight and ash weight are determined. Usually, ten chicks are used for each treatment group and for the control group. The results of the 1α,25-dihydroxy-24R-fluorocholecalciferol anti-rachitogenic activity assay are shown in Table I along with comparative data showing the anti-rachiotogenic activity of 24,24-difluoro 1α,25-dihydroxycholecalciferol.

[4] = tested on: intestinal calcium absorption; assay: Intestinal calcium absorption in vitamin D-deficient chicks (serum 45Ca); type: in vivo, chick (Leghorn cockerels)
Experimental: While Leghorn one-day-old cockerels are placed on a vitamin D-deficient diet and are housed under ultraviolet-free lighting for 21 days. Chicks are then used to determine the effects of test compounds on intestinal calcium absorption. A single oral dose of test compound dissolved in propylene glycol is administered. At various times after dosing, 2 uCi of ^45 Ca (chloride) is given orally, and serum radioactivity is measured 45 minutes after administration of the isotope. Ten chicks are used in each treatment and control group and vehicle-treated controls are included at each time period.

[5] = 2.5 picomoles/rat/day p.o., vehicles 447, EHDP alone 1502
[6] = 7.5 picomoles/rat/day p.o., vehicles 416, EHDP alone 1390
[7] = 25 picomoles/rat/day p.o., vehicles 435, EHDP alone 1684
[8] = 75 picomoles/rat/day p.o., vehicles 448, EHDP alone 1332
[9] = 250 picomoles/rat/day p.o., vehicles 428, EHDP alone 1385

| SMILES | Mean tibial epiphyseal plate width [1, 5] [Micra] | Mean tibial epiphyseal plate width [1, 6] [Micra] | Mean tibial epiphyseal plate width [1, 7] [Micra] | Mean tibial epiphyseal plate width [1, 8] [Micra] | Mean tibial epiphyseal plate width [1, 9] [Micra] | half-life ([2]; 0.3 mcg/kg, i.v., dogs, read-out: Plasma half-life (converted)) [h] | Mean tibia ash weight ± S.E. ([3]; 3 ng/chick/day) [mg] | Mean tibia ash weight ± S.E. ([3]; 10 ng/chick/day) [mg] | Mean tibia ash weight ± S.E. ([3]; 30 ng/chick/day) [mg] | Mean tibial epiphyseal plate width, EHDP alone (positive control) ([1]; EHDP 3 mg/0.2 ml/rat s.c., control groups of the 2.5, 7.5, 25, 75, 250 pmol) | Anti-rachitogenic activity (in words) ([3]; oral, 21 consecutive days) | Serum 45Ca ([4]; 24 hr after single oral dose, vehicle 408 ± 30, *** statistically significant) [CPM/0.2 ML] | Serum 45Ca ([4]; 48 hr after single oral dose, vehicle 439 ± 30, not statistically significant) [CPM/0.2 ML] | Serum 45Ca ([4]; 72 hr after single oral dose, vehicle 398 ± 31, not statistically significant) [CPM/0.2 ML] | Duration of activity in stimulation of intestinal calcium absorption versus 1α,25-dihydroxycholecalciferol (in words) ([4]; single oral 100 nanogram dose) | Prevention of EHDP-induced mineralization block (in words) ([1]; oral, rats) | half-life [2] [h] |
| --- | --- | --- | --- | --- | --- | --- | --- | --- | --- | --- | --- | --- | --- | --- | --- | --- | --- |
| C=C1/C(=C\C=C2/CCC[C@]3(C)[C@@H]([C@H](C)CCCC(C)(C)O)CC[C@@H]23)C[C@@H](O)C[C@@H]1O [1α,25-dihydroxycholecalciferol] | 1365 | 1240 | 1103 | 922 | 839 | 3.6 |  |  |  |  |  |  |  |  |  |  |  |
| C=C1/C(=C\C=C2/CCC[C@]3(C)[C@@H]([C@H](C)CCC(F)(F)C(C)(C)O)CC[C@@H]23)C[C@@H](O)C[C@@H]1O [24,24-difluoro 1α,25-dihydroxycholecalciferol, reference compound] |  |  |  |  |  |  | 192.2 ± 6.2 | 258.6 ± 10.0 | 229.8 ± 14.2 |  |  |  |  |  |  |  |  |
| CC(O)(P(=O)(O)O)P(=O)(O)O [EHDP, Ethane-1-hydroxy-1,1-diphosphonate] |  |  |  |  |  |  |  |  |  | 1502 Micra and 1390 Micra and 1684 Micra and 1332 Micra and 1385 Micra |  |  |  |  |  |  |  |
| C=C1/C(=C\C=C2/CCC[C@]3(C)[C@@H]([C@H](C)CC[C@@H](F)C(C)(C)O)CC[C@@H]23)C[C@@H](O)C[C@@H]1O [[1α,3β,5Z,7E,24R]-24-fluoro-9,10-secocholesta-5,7,10(19)-trien-1,3,25-triol] | 1302 | 1031 | 1040 | 864 | 783 |  | 293.3 ± 4.8 | 330.4 ± 7.7 | 337.9 ± 10.6 |  | has shown activity in the anti-rachitogenic test in chicks; also recorded: possesses potent anti-rachitogenic activity | 793 ± 73 | 520 ± 38 | 372 ± 39 | comparable to that of 1α,25-dihydroxycholecalciferol | has shown activity in the test for the prevention of EHDP-Induced Mineralization Block in rats; also recorded: narrows the widening of the epiphyseal plate induced by EHDP | 14.4 |
